Results as given in US12042507B2, “Compositions and methods of modulating HIF-2A to improve muscle generation and repair” (University of Georgia Research Foundation, Inc., priority 2017, dated 2024).
Entries after “also recorded” stand apart in the source; their conditions may differ.

Assays:
[1] = tested on: CTX-injured tibialis anterior (TA) muscles of hypoxia-exposed mice; test: Muscle regeneration after CTX injury under eubaric hypoxia; assay type: in vivo, wildtype B6 mice; details: hypoxia 17% pO2, 10 dpi
Protocol: To gain insights on hypoxic effect on muscle regeneration, wildtype B6 mice (12-week old) were treated with eubaric hypoxia (17% pO2, 1 atm) in hypoxia chamber for 4 weeks and injected with CTX (0.5 nmol, 100 μL) into tibialis anterior (TA) muscles at day 18. Mice under normoxia (21% pO2, 1 atm) were injured with CTX as a control.
To assess if HIF-2α inhibition benefits regeneration under experimental hypoxia, HIF-2α inhibitor HIF-C2 (5 mg in 0.1% DMSO) or vehicle (0.1% DMSO) were intramuscularly administered to the injured muscles at days 2, 3 and 4 post-injury (2-4 dpi).

[2] = tested on: tibialis anterior (TA) muscles of mTR/Mdx mice; test: Intramuscular HIF-C2 in dystrophic TA muscle of mTR/Mdx mice; assay type: in vivo
Protocol: To reveal the potential therapeutic effects of HIF-2α inhibition on muscular dystrophy, the HIF-2α inhibitor HIF-C2 was intramuscularly injected (5 mg/injection; total 3 doses on day 1, day 4, and day 7) into tibialis anterior (TA) muscles of mTR/Mdx mice (2nd generation; males: n=3 and females: n=3; 16-week old). The contralateral TA muscles received vehicle (0.1% DMSO) injections followed the same injection regime. HIF-C2 and vehicle-treated TA muscles were collected for histological examinations at 28 days after the first treatment.
To investigate whether HIF-C2 improves satellite cell function in mTR/Mdx mice, Pax7 (the definitive marker of satellite cells) and Ki67 (a proliferation marker) immunostaining were carried out on muscle cross-sections and the number of Pax7+pos cells (total number of satellite cells) and Pax7+pos/Ki67+pos cells (proliferative satellite cells) per muscle section were enumerated.
Muscle fibrosis is one of the characteristic pathological changes of Duchenne muscular dystrophy (Klingler et al., Acta Myol 31, 184-195 (2012)). […] Thus, Masson's trichrome staining was performed to reveal the amount of collagen in endomysium.

[3] = tested on: CTX-injured TA muscles; test: Muscle regeneration after CTX-induced injury, intramuscular HIF-c2; details: for total number of Pax7+ SCs per TA muscle section: vs DMSO
Protocol: To induce Cre activity in mice with the Pax7^cre/ERT2 allele, tamoxifen (20 mg/ml in corn oil) was intraperitoneally administrated for 3 consecutive days (100 mg/Kg/day). To assess myofiber damage, 1% Evan's blue (4 ml/Kg in saline) was intraperitoneally administrated 1 day before the euthanasia. To trace proliferative cells, EdU (50 mg/Kg in DMSO) was intraperitoneally administrated 1 day before the euthanasia. For CTX-induced muscle injury, CTX (0.5 nmol in saline) was injected into TA muscle.
For staining muscle sections, muscle sections were fixed with 2% paraformaldehyde (PFA)/PBS for 10 mins, quenched with 50 mM glycine for 10 mins, permeabilized with 0.5% Triton X-100 for 10 mins. To reduce background fluorescence due to endogenous mouse IgG, Mouse on Mouse (M.O.M.) Blocking Reagent (Vector Lab) was used according to the manufactures' instruction. Muscle sections were blocked in 5% BSA/5% normal goat serum in PBS for 1 hr and incubated with primary antibodies: anti-Pax7 (1:5; DSHB), anti-HIF-2α (1:250; Novus Bio.), anti-HIF-1α (1:250; Novus Bio.), anti-Ki67 (1:1,000; Abcam), anti-Laminin B2 (1:1,000; Milipore), anti-embryonic MyHC (1:50, DSHB), anti-MyHC type I, IIA, or IIB (1:50, DSHB) overnight at 4° C. For EdU staining, Click-iT EdU Fluorescence Kit (Life technologies) was used according to the manufactures' instruction before the application of primary antibodies. Muscle sections were washed in PBS with 0.1% Tween-20, incubated with Alexa Fluor dye-labeled secondary antibodies at room temperature for 1 hr and washed. Sections were mounted with DAPI-containing mounting medium (Life technologies).
Peak isometric torque of the ankle dorsiflexors (tibialis anterior, extensor digitorum longus and extensor hallicus longus muscles) was assessed in vivo as previously described (47). Briefly, mice were anaesthetized with 1.75% isoflurane mixed with oxygen. The left hindlimb was depilated and aseptically prepared before the foot was placed into a foot plate attached to a servomoter (Model 300C-LR; Aurora Scientific, Aurora, Ontario, Canada). Two Pt-Ir electrode needles (Model E2-12; Grass Technologies, West Warwick, RI, USA) were inserted percutaneously on either side of the peroneal nerve. The ankle joint was secured at a 90° angle and body temperature was maintained at 37° C. throughout functional testing. Peak isometric torque was achieved by varying the current delivered to the peroneal nerve at a frequency of 200 Hz and a 0.1-ms square wave pulse. Torques (Nomm) were normalized by the body mass (kg^−1) to account for differences in body size among mice. Following peak isometric torque measurements, the dorsiflexors were subject to 100 electronically stimulated eccentric contractions in order to induce injury. During each contraction the foot was passively moved from the 0° position (perpendicular to tibia) to 20° of dorsiflexion. The dorsiflexors were stimulated at 200 Hz for a 100-ms isometric contraction followed by an additional 50 ms of stimulation while moving from 20° dorsiflexion to 20° plantarflexion at an angular velocity of 800°/s. Eccentric contractions were repeated every 10 seconds and the entire protocol lasted about […].
Muscle sections were stained with Sirius red solution (0.1% in picric acid) for 15 mins, washed with 1% acetic acid for 3 times. Sections were mounted with Cytoseal™ 60 mounting medium (Thermo Fisher Scientific), followed with imaging.
To investigate effects of HIF-2α inhibition on muscle regeneration, HIF-c2 or the carrier solution (1% DMSO) was administered into CTX-injured TA muscles of C57BL/6 mice (daily injections between 1-5 dpi; FIG. 5A). EdU was administrated in the same mice to trace cell proliferation.

[4] = target: full-length HIF-2 transcription factor (Homo sapiens, UniProt Q99814); details: cited from earlier work
[5] = tested on: C2Cl2 myoblasts; test: RT-qPCR of HIF-2α and Spry1 mRNA in C2Cl2 myoblasts; assay type: cell-based
Protocol: C2Cl2 myoblasts were transfected with pCMEGIP-HIF2αTM or control empty pCMEGIP plasmids using TransIT-X2 (Mirus Bio.). To differentiate C2Cl2 myoblasts, cells were cultured to reach 80% confluency and further cultured in DMEM (4.5 g/L glucose) medium supplemented with 2% horse serum for 5 days.
For measure relative expression levels, total RNA was isolated from C2Cl2 myoblasts using TRIzol or from FACS sorted satellite cells using PicoPure RNA Isolation Kit (Thermo Fisher Scientific). 1 μg total RNA from C2Cl2 myoblasts (or 0.2 μg total RNA from satellite cells) was used in 20 μl reverse transcription reactions (Maxima; Life technologies) and diluted into 100 μl. 2 μl diluted cDNA was used in 8 μl quantitative PCR reactions (SsoAdvanced™ Universal SYBR Green mix; Bio-Rad) on a BioRad CFX384™ Real-Time PCR Detection System. Cq-values were determined and expression values were calculated by BioRad CFX Manager™ Software. Relative expression values were normalized to inner reference genes Rps18 and Tbp of each biological sample. The following primers were used for quantifying expression levels: […]

[6] = target: HIF-1 (Homo sapiens, UniProt Q16665); details: selectivity for the HIF-2 isoform; cited from earlier work
[7] = tested on: HIF-2; details: living cells; cited from earlier work
[8] = target: HIF-2α PAS-B (Homo sapiens, UniProt Q99814); details: binds within the internal cavity of HIF-2α PAS-B; cited from earlier work
[9] = tested on: clear cell renal cell carcinoma (ccRCC); details: patients with ccRCC; cited from earlier work
[10] = tested on: mouse xenograft models; details: cited from earlier work
[11] = tested on: HIF-2α target genes in tumor cells; details: cited from earlier work
[12] = tested on: HIF-1a; details: cited from earlier work
[13] = tested on: HIF-2α; details: cited from earlier work
[14] = shRNA expression in C2Cl2 myoblasts

Chain of HIF-1 (Q16665 whole entry, canonical isoform): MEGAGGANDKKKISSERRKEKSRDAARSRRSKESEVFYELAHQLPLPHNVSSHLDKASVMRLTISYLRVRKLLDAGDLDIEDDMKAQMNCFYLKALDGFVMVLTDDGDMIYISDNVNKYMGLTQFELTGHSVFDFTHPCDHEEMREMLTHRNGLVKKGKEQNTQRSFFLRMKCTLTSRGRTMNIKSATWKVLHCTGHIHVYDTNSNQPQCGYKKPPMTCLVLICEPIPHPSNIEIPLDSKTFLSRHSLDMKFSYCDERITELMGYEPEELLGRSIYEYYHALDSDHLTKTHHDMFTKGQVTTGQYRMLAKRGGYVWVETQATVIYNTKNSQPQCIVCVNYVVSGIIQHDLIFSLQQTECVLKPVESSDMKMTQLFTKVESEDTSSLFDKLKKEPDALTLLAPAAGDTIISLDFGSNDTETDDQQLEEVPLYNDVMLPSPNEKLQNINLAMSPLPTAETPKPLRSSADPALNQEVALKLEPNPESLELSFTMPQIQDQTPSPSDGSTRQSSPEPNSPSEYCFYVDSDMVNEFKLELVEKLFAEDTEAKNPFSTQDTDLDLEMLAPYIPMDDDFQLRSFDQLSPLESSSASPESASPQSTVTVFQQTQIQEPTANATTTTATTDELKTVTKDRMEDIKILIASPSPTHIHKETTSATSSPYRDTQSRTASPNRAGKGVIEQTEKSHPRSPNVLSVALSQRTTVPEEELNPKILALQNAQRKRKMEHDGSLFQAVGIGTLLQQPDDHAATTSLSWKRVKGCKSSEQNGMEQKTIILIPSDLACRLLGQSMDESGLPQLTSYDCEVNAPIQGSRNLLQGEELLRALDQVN
Chain of HIF-2α PAS-B (Q99814 240-350 limits assumed): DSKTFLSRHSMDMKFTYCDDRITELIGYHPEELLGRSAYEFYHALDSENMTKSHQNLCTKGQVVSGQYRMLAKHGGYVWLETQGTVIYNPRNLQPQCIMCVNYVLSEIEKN
Chain of full-length HIF-2 transcription factor (Q99814 whole entry): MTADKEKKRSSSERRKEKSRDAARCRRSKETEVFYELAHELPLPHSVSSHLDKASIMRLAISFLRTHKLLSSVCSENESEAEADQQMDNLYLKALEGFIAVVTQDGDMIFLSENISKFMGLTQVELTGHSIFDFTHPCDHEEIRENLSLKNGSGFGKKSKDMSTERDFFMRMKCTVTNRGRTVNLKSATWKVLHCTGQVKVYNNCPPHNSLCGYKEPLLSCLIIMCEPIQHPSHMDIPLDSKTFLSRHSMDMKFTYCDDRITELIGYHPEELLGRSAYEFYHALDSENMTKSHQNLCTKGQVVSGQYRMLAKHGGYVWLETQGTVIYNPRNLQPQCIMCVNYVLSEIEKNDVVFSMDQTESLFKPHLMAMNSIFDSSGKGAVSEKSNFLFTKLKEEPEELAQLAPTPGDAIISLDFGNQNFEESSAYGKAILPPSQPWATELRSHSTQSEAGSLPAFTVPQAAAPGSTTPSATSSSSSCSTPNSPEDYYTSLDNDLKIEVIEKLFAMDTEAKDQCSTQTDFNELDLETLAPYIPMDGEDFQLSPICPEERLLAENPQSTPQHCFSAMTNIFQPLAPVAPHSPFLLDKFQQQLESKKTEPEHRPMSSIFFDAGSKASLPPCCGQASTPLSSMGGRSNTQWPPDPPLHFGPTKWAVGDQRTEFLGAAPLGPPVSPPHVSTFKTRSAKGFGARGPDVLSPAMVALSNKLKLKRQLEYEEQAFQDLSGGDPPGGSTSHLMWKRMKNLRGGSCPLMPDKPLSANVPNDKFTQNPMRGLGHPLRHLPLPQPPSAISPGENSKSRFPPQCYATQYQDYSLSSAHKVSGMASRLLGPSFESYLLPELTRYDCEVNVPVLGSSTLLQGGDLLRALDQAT

Molecule: O=[N+]([O-])c1c(Nc2cc(F)cc(Cl)c2)ccc2nonc12 [HIF-C2, N-(3-chloro-5-fluorophenyl)-4-nitrobenzo[c][1,2,5]oxadiazol-5-amine]
- muscle regeneration under hypoxia [1]: improved
- percentage of Ki67+ proliferating satellite cells [1]: improved satellite cell proliferation under hypoxia to a level better than the normoxic condition
- MuSC (Pax7+) number ([1]; 5 mg i.m. at 2-4 dpi, vs vehicle): increased
- total number of satellite cells (Pax7+pos) per muscle section ([2]; female mTR/Mdx mice): elevated
- number of proliferative satellite cells (Pax7+pos/Ki67+pos) ([2]; female mTR/Mdx mice, 28 days post-treatment, vs control): comparable
- number of centralized nuclei in a myofiber ([2]; male mTR/Mdx mice): increased
- number of proliferative satellite cells (Pax7+pos/Ki67+pos) ([2]; male mTR/Mdx mice): significantly increased
- total number of satellite cells (Pax7+pos) per muscle section ([2]; male mTR/Mdx mice): significantly increased
- myofiber cross-sectional area (CSA), ImageJ analysis ([2]; males and females, 28 days after first treatment): increase of myofiber caliber
- myofiber size (H&E staining) ([2]; males and females, 28 days after first treatment, 5 mg/injection x3, vs vehicle): larger myofibers
- amount of collagen in endomysial space (Masson's trichrome staining) ([2]; vs vehicle-treated control muscles): remarkably reduced
- Pax7+/EdU+ activated SCs per TA muscle section ([3]; 3 dpi, vs 1% DMSO carrier): increased
- expression of HIF-2α in treated muscle ([3]; 7 dpi): reduced
- expression of MyoD in treated muscle ([3]; 7 dpi): reduced
- expression of eMyHC in treated muscle ([3]; 7 dpi): reduced
- myofiber regeneration ([3]; 7 dpi): improved
- recovery of the maximal torque measured before injury ([3]; 7 dpi, n=6, peroneal nerve stimulation): ~53%
- total number of Pax7+ SCs per TA muscle section ([3]; 7 dpi): increased
- total number of Pax7+ SCs per TA muscle section ([3]; 10 dpi): increased
- fibrosis (Sirius red staining for collagen) ([3]; 30 dpi): no overt sign of fibrosis
- myofiber cross sectional areas ([3]; 30 dpi): increased
- numbers of Pax7+ SCs vs control muscles ([3]; 30 dpi): comparable numbers
- recovery of the strength (maximal torque) ([3]; 30 dpi, n=3): ~90%
- HIF-2α expression in muscle (including SCs) ([3]; intramuscular, 5 mg/injection/day, 3 consecutive days): reduced HIF-2α expression
- heterodimerization of the full-length HIF-2 transcription factor [4]: disrupts heterodimerization
- HIF-2α mRNA level ([5]; HIF-c2 100 μM, C2Cl2 myoblasts): unchanged
- Spry1 mRNA level ([5]; HIF-c2 100 μM, C2Cl2 myoblasts): decreased; also recorded: reduced
- activity to antagonize HIF-1 [6]: no activity to antagonize HIF-1
- HIF-2 DNA binding and transcription of its target genes [7]: disrupting HIF-2 DNA binding and inhibiting the transcription of its target genes
- Kd [8]: 81 nM

Molecule: CS(=O)(=O)c1ccc(Oc2cc(F)cc(C#N)c2)c2c1[C@H](O)C(F)(F)C2 [PT2385]
- clinical activity [9]: demonstrated clinical activity

Molecule: CS(=O)(=O)c1ccc(Oc2cc(F)cc(C#N)c2)c2c1[C@H](O)[C@H](F)[C@@H]2F [PT2977]
- tumor regression [10]: induced regression
- expression of HIF-2α target genes [11]: inhibited

Molecule: O=C(CCCCCCC(=O)Nc1ccccc1)NO [Vorinostat]
- reversal of epigenetic silencing of HIF-1a [12]: not HIF-1a
- reversal of epigenetic silencing of HIF-2α [13]: can reverse the epigenetic silencing of HIF-2α

B1: HIF-2α shRNA #1: For HIF-2α knockdown, HIF-2α shRNA oligos ... cloned into pMSCV-P2GM retrovirus plasmids; HIF-2α shRNA #1 oligo (SEQ ID NO: 18) (nucleic acid)
DNA: TGCTGTTGACAGTGAGCGAACACTTGATGTGGAAACGTATTAGTGAAGCCACAGATGTAATACGTTTCCACATCAAGTGTGTGCCTACTGCCTCGGA
- HIF-2α mRNA level [5, 14]: reduced
- Spry1 mRNA level [5, 14]: reduced
